From US8080529B2, “Macrolides with anti-inflammatory activity” (Glaxo Group Limited, priority 2005, dated 2011)
Where two headings read alike, the source gives them in different places.

Tests used:
A549 = assay: Cytotoxicity assay (MTT), A549 cell line; format: cell-based; conditions: 24 h
How it was run: (§1)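 Hep G2 and A549 cells were cultured 24 h at 37° C in RPM medium with test compounds at 50 μM and 12.5 μM. MTT was added for 0.5-2 h and formazan read at 490 nm. Growth value calculated as OD490 treated/OD490 nontreated ×100.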

TNF-α [1] = assay: Inhibition of TNF-α production by stimulated human peripheral blood leukocytes in vitro; format: cell-based; conditions: Homo sapiens, Leukocyte, read-out: Percentage of inhibition of TNF-α production
How it was run: (§2)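 Dextran-sedimented human PBL (3–5×10^6/well) preincubated 2 h at 37 °C with compounds at 50 μM or 10 μM, then stimulated overnight with LPS 2 μg/mL, PMA 1 μg/mL or zymosan 120 μg/mL. Supernatant cytokines quantified by sandwich ELISA; % inhibition versus stimulated untreated controls.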

IL-6 = assay: Inhibition of IL-6 production by stimulated human peripheral blood leukocytes in vitro; format: cell-based; conditions: Homo sapiens, Leukocyte, read-out: Percentage of inhibition of IL-6 production
How it was run: as §2

IL-1α = assay: Inhibition of IL-1 production by stimulated human peripheral blood leukocytes in vitro; format: cell-based; conditions: Homo sapiens, Leukocyte, read-out: Percentage of inhibition of IL-1α production
Hep G2 = assay: Cytotoxicity assay (MTT), Hep G2 cell line; format: cell-based; conditions: 24 h
How it was run: as §1

[2] = tested on: human peripheral blood mononuclear cells (PBMC); assay: Effects on human T-cell proliferation in vitro (3H-thymidine incorporation); format: cell-based; conditions: Homo sapiens, PBMC, read-out: Percentage of inhibition of proliferation of stimulated PBMC
How it was run: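 Proliferation of human peripheral blood mononuclear cells (PBMC) was assessed in the presence of test compounds. During the final 18 h of culture each well received 1 μCi of ^3H-thymidine. Cells were then collected onto a 96-well filter with a multiple cell harvester, and ^3H-thymidine incorporation was counted on a TopCount NXT to give percentage inhibition of proliferation.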

TNF-α [3] = assay: Lipopolysaccharide induced TNF-α production in Balb/cJ mice; format: in vivo; conditions: Mus musculus, ip, 1.5 h; 10 mg/kg intraperitoneally, 30 min before LPS; 90 min after LPS; read-out: % inhibition of TNF-α production (plasma)
IL-8 = assay: Inhibition of IL-8 production by stimulated human peripheral blood leukocytes in vitro; format: cell-based; conditions: Homo sapiens, Leukocyte, read-out: Percentage of inhibition of IL-8 production
How it was run: as §2

Row | SMILES | Percentage of inhibition of cell growth (A549; 12.5 μM) [%] | Percentage of inhibition of cell growth (A549; 50 μM) [%] | inhibition at 10 µM (TNF-α [1]; LPS-stimulated PBL) [%] | inhibition at 10 µM (TNF-α [1]; PMA-stimulated PBL) [%] | inhibition at 10 µM (TNF-α [1]; zymosan-stimulated PBL) [%] | inhibition at 50 µM (TNF-α [1]; LPS-stimulated PBL) [%] | inhibition at 50 µM (TNF-α [1]; PMA-stimulated PBL) [%] | inhibition at 50 µM (TNF-α [1]; zymosan-stimulated PBL) [%] | inhibition at 10 µM (IL-6; LPS-stimulated PBL) [%] | inhibition at 10 µM (IL-6; PMA-stimulated PBL) [%] | inhibition at 10 µM (IL-6; zymosan-stimulated PBL) [%] | inhibition at 50 µM (IL-6; LPS-stimulated PBL) [%] | inhibition at 50 µM (IL-6; PMA-stimulated PBL) [%] | inhibition at 50 µM (IL-6; zymosan-stimulated PBL) [%] | inhibition at 10 µM (IL-1α; LPS-stimulated PBL) [%] | inhibition at 10 µM (IL-1α; PMA-stimulated PBL) [%] | inhibition at 10 µM (IL-1α; zymosan-stimulated PBL) [%] | inhibition at 50 µM (IL-1α; LPS-stimulated PBL) [%] | inhibition at 50 µM (IL-1α; PMA-stimulated PBL) [%] | inhibition at 50 µM (IL-1α; zymosan-stimulated PBL) [%] | also measured
1 | CC[C@H]1OC(=O)[C@H](C)[C@@H](O[C@H]2C[C@@](C)(OC)[C@@H](OC(=O)CCN(C)CCN(CC)CC)[C@H](C)O2)[C@H](C)[C@@H](O[C@@H]2O[C@H](C)C[C@H](N(C)C)[C@H]2O)[C@](C)(OC)C[C@@H](C)C(=O)N[C@H](C)[C@@H](O)[C@]1(C)O [Example 21] | 5 | 4 | 0 | 8 | 5 | 10 | 75 | 39 | 1 | 17 | 22 | 22 | 63 | 50 | 14 | 31 | 58 | 54 | 69 | 86 | Percentage of inhibition of cell growth (Hep G2; 12.5 μM): 8%; Percentage of inhibition of cell growth (Hep G2; 50 μM): 4%; inhibition at 10 µM ([2]; PHA): 0%; inhibition at 50 µM ([2]; PHA): 80%; inhibition at 10 µM ([2]; PMA + iono.): 0%; inhibition at 50 µM ([2]; PMA + iono.): 74%; inhibition in vivo at 10 mg/kg (TNF-α [3]): 61%; inhibition at 10 µM (IL-8; LPS-stimulated PBL): 0%; inhibition at 10 µM (IL-8; PMA-stimulated PBL): 6%; inhibition at 10 µM (IL-8; zymosan-stimulated PBL): 0%; inhibition at 50 µM (IL-8; LPS-stimulated PBL): 4%; inhibition at 50 µM (IL-8; PMA-stimulated PBL): 23%; inhibition at 50 µM (IL-8; zymosan-stimulated PBL): 13%
2 | CC[C@H]1OC(=O)[C@H](C)[C@@H](O[C@H]2C[C@@](C)(OC)[C@@H](OC(=O)CCN(C)CCO)[C@H](C)O2)[C@H](C)[C@@H](O[C@@H]2O[C@H](C)C[C@H](N(C)C)[C@H]2O)[C@](C)(OC)C[C@@H](C)C(=O)N[C@H](C)[C@@H](O)[C@]1(C)O [Example 15] | 0 | 5 | 61 | 82 | 93 | 99 | 96 | 100 | 39 | 50 | 76 | 93 | 95 | 96 | 80 | 80 | 96 | 98 | 96 | 99 | Percentage of inhibition of cell growth (Hep G2; 12.5 μM): 3%; Percentage of inhibition of cell growth (Hep G2; 50 μM): 0%; inhibition at 10 µM ([2]; PHA): 68%; inhibition at 50 µM ([2]; PHA): 99%; inhibition at 10 µM ([2]; PMA + iono.): 53%; inhibition at 50 µM ([2]; PMA + iono.): 98%; inhibition in vivo at 10 mg/kg (TNF-α [3]): 100%; inhibition at 10 µM (IL-8; LPS-stimulated PBL): 38%; inhibition at 10 µM (IL-8; PMA-stimulated PBL): 0%; inhibition at 10 µM (IL-8; zymosan-stimulated PBL): 42%; inhibition at 50 µM (IL-8; LPS-stimulated PBL): 94%; inhibition at 50 µM (IL-8; PMA-stimulated PBL): 95%; inhibition at 50 µM (IL-8; zymosan-stimulated PBL): 91%
3 | CC[C@H]1OC(=O)[C@H](C)[C@@H](O[C@H]2C[C@@](C)(OC)[C@@H](OC(=O)CCN(C)C)[C@H](C)O2)[C@H](C)[C@@H](O[C@@H]2O[C@H](C)C[C@H](N(C)C)[C@H]2O)[C@](C)(OC)C[C@@H](C)C(=O)N[C@H](C)[C@@H](O)[C@]1(C)O [Example 12, 4″-O-(3-dimethylamino-propionyl)-6-O-methyl-9a-aza-9a-homoerythromycin A] | 8 | 4 | 23 | 49 | 77 | 92 | 97 | 97 | 16 | 32 | 67 | 81 | 67 | 91 | 43 | 45 | 88 | 95 | 90 | 100 | Percentage of inhibition of cell growth (Hep G2; 12.5 μM): 0%; Percentage of inhibition of cell growth (Hep G2; 50 μM): 0%; inhibition at 10 µM ([2]; PHA): 33%; inhibition at 50 µM ([2]; PHA): 99%; inhibition at 10 µM ([2]; PMA + iono.): 29%; inhibition at 50 µM ([2]; PMA + iono.): 96%; inhibition in vivo at 10 mg/kg (TNF-α [3]): 69%; inhibition at 10 µM (IL-8; LPS-stimulated PBL): 7%; inhibition at 10 µM (IL-8; PMA-stimulated PBL): 0%; inhibition at 10 µM (IL-8; zymosan-stimulated PBL): 2%; inhibition at 50 µM (IL-8; LPS-stimulated PBL): 72%; inhibition at 50 µM (IL-8; PMA-stimulated PBL): 3%; inhibition at 50 µM (IL-8; zymosan-stimulated PBL): 9%
4 | CC[C@H]1OC(=O)[C@H](C)[C@@H](O[C@H]2C[C@@](C)(OC)[C@@H](OC(=O)CCN3CCCN(CCCN4CCCC4)CC3)[C@H](C)O2)[C@H](C)[C@@H](O[C@@H]2O[C@H](C)C[C@H](N(C)C)[C@H]2O)[C@](C)(OC)C[C@@H](C)C(=O)N[C@H](C)[C@@H](O)[C@]1(C)O [Example 34] | 0 | 1 | 55 | 86 | 65 | 96 | 100 | 100 | 28 | 66 | 66 | 91 | 95 | 99 | 69 | 86 | 77 | 82 | 100 | 99 | Percentage of inhibition of cell growth (Hep G2; 12.5 μM): 7%; Percentage of inhibition of cell growth (Hep G2; 50 μM): 1%; inhibition at 10 µM ([2]; PHA): 66%; inhibition at 50 µM ([2]; PHA): 99%; inhibition at 10 µM ([2]; PMA + iono.): 0%; inhibition at 50 µM ([2]; PMA + iono.): 87%; inhibition in vivo at 10 mg/kg (TNF-α [3]): 78%; inhibition at 10 µM (IL-8; LPS-stimulated PBL): 21%; inhibition at 10 µM (IL-8; PMA-stimulated PBL): 33%; inhibition at 10 µM (IL-8; zymosan-stimulated PBL): 32%; inhibition at 50 µM (IL-8; LPS-stimulated PBL): 87%; inhibition at 50 µM (IL-8; PMA-stimulated PBL): 76%; inhibition at 50 µM (IL-8; zymosan-stimulated PBL): 81%
